According to PubChem BioAssay AID248 (DTP/NCI, 2004):
Several values for one entry are separate records, joined by “and”; a condition that tells them apart may be missing. Identical values can stand only once. Toxic doses and inconclusive results are not listed. Cut-off read from the data, not from the text of the source: active = T/C of 150% or more; inactive = T/C below 125%.

Tested on: L1210 leukemia ip in BDF1 mice, survival T/C
Test: NCI In Vivo Anticancer Drug Screen. Data for tumor model L1210 Leukemia (intraperitoneal) in B6D2F1 (BDF1) mice
Conditions: endpoint: mean survival time, higher = longer survival
Summary of the method: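 Transplanted-tumor mice were given test agent; controls received vehicle only. Survival readings from the two groups were divided (treated over control).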

[1] = dose: 100.0 mg/kg/injection, schedule: Q01DX009 (ip), vehicle: saline with Tween-80
[2] = dose: 100.0 mg/kg/injection, schedule: Q04DX003 (ip), vehicle: saline with Tween-80
[3] = dose: 200.0 mg/kg/injection, schedule: Q04DX003 (ip), vehicle: saline with Tween-80
[4] = dose: 400.0 mg/kg/injection, schedule: Q04DX003 (ip), vehicle: saline with Tween-80
[5] = dose: 200.0 mg/kg/injection, schedule: Q01DX001 (ip), vehicle: Klucel (hydroxypropylcellulose) (HPC)
[6] = dose: 400.0 mg/kg/injection, schedule: Q01DX001 (ip), vehicle: Klucel (hydroxypropylcellulose) (HPC)
[7] = dose: 100.0 mg/kg/injection, schedule: Q01DX009 (ip), vehicle: Klucel (hydroxypropylcellulose) (HPC)
[8] = dose: 200.0 mg/kg/injection, schedule: Q01DX009 (ip), vehicle: Klucel (hydroxypropylcellulose) (HPC)
[9] = dose: 100.0 mg/kg/injection, schedule: Q01DX001 (ip), vehicle: saline
[10] = dose: 200.0 mg/kg/injection, schedule: Q01DX001 (ip), vehicle: saline
[11] = dose: 400.0 mg/kg/injection, schedule: Q01DX001 (ip), vehicle: saline
[12] = dose: 100.0 mg/kg/injection, schedule: Q04DX003 (ip), vehicle: Klucel (hydroxypropylcellulose) (HPC)
[13] = dose: 200.0 mg/kg/injection, schedule: Q04DX003 (ip), vehicle: Klucel (hydroxypropylcellulose) (HPC)
[14] = dose: 400.0 mg/kg/injection, schedule: Q04DX003 (ip), vehicle: Klucel (hydroxypropylcellulose) (HPC)
[15] = dose: 400.0 mg/kg/injection, schedule: Q01DX009 (ip), vehicle: Klucel (hydroxypropylcellulose) (HPC)

Measured: T/C

O=C1NC(=O)C(c2ccc(C(F)(F)F)cc2)(c2ccc(C(F)(F)F)cc2)N1
inactive: [1] 98 % of control | [2] 92 % of control | dose: 200.0 mg/kg/injection, schedule: Q01DX009 (ip), vehicle: saline with Tween-80 90 % of control | [3] 96 % of control | dose: 400.0 mg/kg/injection, schedule: Q01DX009 (ip), vehicle: saline with Tween-80 86 % of control | [4] 89 % of control

c1cc[c]([Sn]([c]2ccccc2)([c]2ccccc2)[n]2cccc2)cc1
inactive: dose: 3.13 mg/kg/injection, schedule: Q01DX009 (ip), vehicle: saline with Tween-80 98 % of control | dose: 6.25 mg/kg/injection, schedule: Q01DX009 (ip), vehicle: saline with Tween-80 102 % of control | dose: 12.5 mg/kg/injection, schedule: Q01DX009 (ip), vehicle: saline with Tween-80 100 % of control | [1] 94 % of control

CN(C)C(C#N)c1c[nH]c2ccccc12 (stereo not drawn)
inactive: dose: 12.5 mg/kg/injection, schedule: Q01DX009 (ip), vehicle: Klucel (hydroxypropylcellulose) (HPC) 87 % of control | dose: 12.5 mg/kg/injection, schedule: Q04DX003 (ip), vehicle: Klucel (hydroxypropylcellulose) (HPC) 97 % of control | dose: 25.0 mg/kg/injection, schedule: Q01DX009 (ip), vehicle: Klucel (hydroxypropylcellulose) (HPC) 97 % of control | dose: 25.0 mg/kg/injection, schedule: Q04DX003 (ip), vehicle: Klucel (hydroxypropylcellulose) (HPC) 97 % of control | dose: 50.0 mg/kg/injection, schedule: Q04DX003 (ip), vehicle: Klucel (hydroxypropylcellulose) (HPC) 94 % of control

Cc1cc(=O)[nH]c2c1CCCC2
inactive: [2] 92 % of control | [3] 97 % of control | [4] 101 % of control

CCCCn1c(C)nc2c(N)cc(C(F)(F)F)cc21
inactive: [5] 100 % of control | [6] 111 % of control

COc1ccc(CNCCO)cc1
inactive: dose: 100.0 mg/kg/injection, schedule: Q01DX009 (ip), vehicle: saline 96 % of control | dose: 100.0 mg/kg/injection, schedule: Q04DX003 (ip), vehicle: saline 96 % of control | dose: 200.0 mg/kg/injection, schedule: Q01DX009 (ip), vehicle: saline 91 % of control | dose: 200.0 mg/kg/injection, schedule: Q04DX003 (ip), vehicle: saline 98 % of control | dose: 400.0 mg/kg/injection, schedule: Q01DX009 (ip), vehicle: saline 97 % of control | dose: 400.0 mg/kg/injection, schedule: Q04DX003 (ip), vehicle: saline 93 % of control

COC(=O)c1ccc(N(C)CC2=Nc3c(nc(N)nc3SCc3ccccc3)NC2)cc1
inactive: dose: 100.0 mg/kg/injection, schedule: Q01DX001 (ip), vehicle: saline with Tween-80 97 % of control | dose: 200.0 mg/kg/injection, schedule: Q01DX001 (ip), vehicle: saline with Tween-80 108 % of control | dose: 400.0 mg/kg/injection, schedule: Q01DX001 (ip), vehicle: saline with Tween-80 101 % of control

Cc1n(CCBr)c([N+](=O)[O-])c[n+]1C1N=C(c2ccccc2)c2cc(Cl)ccc2N(C)C1=O (stereo not drawn)
inactive: dose: 50.0 mg/kg/injection, schedule: Q01DX009 (ip), vehicle: Klucel (hydroxypropylcellulose) (HPC) 89 % of control | [7] 89 % of control | [8] 86 % of control

CCOC(=O)C1=NN(c2ccccc2)C(=O)C1N=Nc1ccc(S(=O)(=O)Nc2nnc(C)s2)cc1 (stereo not drawn)
inactive: [9] 110 % of control | [10] 105 % of control | [11] 98 % of control

COc1nn(C)c(=O)c2ncccc12
inactive: dose: 15.0 mg/kg/injection, schedule: Q01DX001 (ip), vehicle: carboxymethylcellulose (CMC) 93 % of control | dose: 30.0 mg/kg/injection, schedule: Q01DX001 (ip), vehicle: carboxymethylcellulose (CMC) 92 % of control

CCN(C(=S)c1ccc(Cl)cc1)c1cccc(C)c1
inactive: dose: 100.0 mg/kg/injection, schedule: Q01DX001 (ip), vehicle: Klucel (hydroxypropylcellulose) (HPC) 103 % of control | [12] 94 % of control | [5] 99 % of control | [13] 103 % of control | [6] 94 % of control | [14] 100 % of control

CCCCNC(=O)Nc1cccc(C(F)(F)F)c1
inactive: dose: 50.0 mg/kg/injection, schedule: Q01DX001 (sc), vehicle: carboxymethylcellulose (CMC) 106 % of control | dose: 100.0 mg/kg/injection, schedule: Q01DX001 (sc), vehicle: carboxymethylcellulose (CMC) 104 % of control | dose: 200.0 mg/kg/injection, schedule: Q01DX001 (sc), vehicle: carboxymethylcellulose (CMC) 104 % of control | dose: 400.0 mg/kg/injection, schedule: Q01DX001 (sc), vehicle: carboxymethylcellulose (CMC) 101 % of control

CCC(=O)Nc1ccc(Cl)cc1
inactive: [7] 87 % of control | [12] 95 % of control | [8] 93 % of control | [13] 95 % of control | [15] 104 % of control | [14] 95 % of control

CSC(NC(=O)c1ccc([N+](=O)[O-])cc1)C(N)=O (stereo not drawn)
inactive: dose: 50.0 mg/kg/injection, schedule: Q04DX002 (ip), vehicle: Klucel (hydroxypropylcellulose) (HPC) 102 % of control | dose: 100.0 mg/kg/injection, schedule: Q04DX002 (ip), vehicle: Klucel (hydroxypropylcellulose) (HPC) 106 % of control | dose: 200.0 mg/kg/injection, schedule: Q04DX002 (ip), vehicle: Klucel (hydroxypropylcellulose) (HPC) 109 % of control and 113 % of control | dose: 400.0 mg/kg/injection, schedule: Q04DX002 (ip), vehicle: Klucel (hydroxypropylcellulose) (HPC) 109 % of control

COc1cc2c3c(c1)-c1nc4ccccc4cc1CN3CCC2
inactive: dose: 100.0 mg/kg/injection, schedule: Q01DX009 (ip), vehicle: other 102 % of control | dose: 100.0 mg/kg/injection, schedule: Q04DX003 (ip), vehicle: other 97 % of control | dose: 200.0 mg/kg/injection, schedule: Q01DX009 (ip), vehicle: other 102 % of control | dose: 200.0 mg/kg/injection, schedule: Q04DX003 (ip), vehicle: other 100 % of control | dose: 400.0 mg/kg/injection, schedule: Q01DX009 (ip), vehicle: other 114 % of control | dose: 400.0 mg/kg/injection, schedule: Q04DX003 (ip), vehicle: other 97 % of control

Cc1cc(Cc2cc(C)c(O)c(C(C)(C)C)c2)cc(C(C)(C)C)c1O
inactive: dose: 50.0 mg/kg/injection, schedule: Q04DX002 (ip), vehicle: other 93 % of control | dose: 100.0 mg/kg/injection, schedule: Q04DX002 (ip), vehicle: other 87 % of control | dose: 200.0 mg/kg/injection, schedule: Q04DX002 (ip), vehicle: other 90 % of control

C1=CC2CCC1NO2 (stereo not drawn)
inactive: [9] 105 % of control | [10] 95 % of control | [11] 101 % of control

CC(CO)[CH2][Sn]([c]1ccccc1)([c]1ccccc1)[c]1ccccc1 (stereo not drawn)
inactive: dose: 100.0 mg/kg/injection, schedule: Q04DX002 (ip), vehicle: saline with Tween-80 98 % of control and 101 % of control | dose: 200.0 mg/kg/injection, schedule: Q04DX002 (ip), vehicle: saline with Tween-80 98 % of control | dose: 400.0 mg/kg/injection, schedule: Q04DX002 (ip), vehicle: saline with Tween-80 95 % of control and 98 % of control

CCOC(=O)Nc1ccc(C)c(Cl)c1
inactive: [7] 105 % of control | [8] 108 % of control | [15] 103 % of control

CC(C)C1(NC(=O)C2C=C3c4cccc5[nH]cc(c45)CC3N(C)C2)OC2(O)C3CCCN3C(=O)C(Cc3ccccc3)N2C1=O (stereo not drawn) (tested in a mixture with another compound)
inactive: [9] 107 % of control | [10] 102 % of control | [11] 100 % of control
